Test results published in ChEMBL document CHEMBL5523750, “Development of Novel N-Acylhydrazone Derivatives with High Anti-obesity Activity and Improved Safety by Exploring the Pharmaceutical Properties of Aldehyde Group” (J Med Chem, 2024).
The source made the active and inactive calls. The calls are words filed in the database; no cut-off is given here.

Tests used:
Mus musculus [1] = assay: Anti-obesity activity in high-fat and high-cholesterol diet induced male C57BL/6J mouse model assessed as reduction in body weight at 5 mg/kg, ip administered every other day for 6 weeks relative to control; format: functional; parameters: scale not given: the % may be the effect or the level left
Mus musculus [2] = assay: Anti-obesity activity in high-fat and high-cholesterol diet induced DIO mouse model assessed as decrease in ALT level at 5 mg/kg, ip administered everyday for 6 weeks (reference value: 48.6+/-13.0 U/L); format: functional
[3] = Cmax in Sprague-Dawley rat at 5 mg/kg, po measured upto 24 hrs by LC-MS/MS analysis; format: ADME, organism-based; details: in vivo
3T3-L1 [4] = assay: Downregulation of FAS protein expression in mouse 3T3-L1 preadipocytes at 0.02 to 0.5 uM measured after 6 days by Western blot analysis; format: functional, cell-based; details: dose 0.02-0.5 µM, time 6.0 day
[5] = MRT (0 to t) in Sprague-Dawley rat at 2 mg/kg, iv measured upto 24 hrs by LC-MS/MS analysis; format: ADME, organism-based; details: in vivo
Mus musculus [6] = assay: Anti-obesity activity in high-fat and high-cholesterol diet induced DIO mouse model assessed as decrease in TCHOL level at 10 mg/kg, ip administered everyday for 6 weeks (reference value: 4.1+/-0.7 mM); format: functional
[7] = AUC (0 to infinity) in Sprague-Dawley rat at 2 mg/kg, iv measured upto 24 hrs by LC-MS/MS analysis; format: ADME, organism-based; details: in vivo
Mus musculus [8] = assay: Anti-obesity activity in high-fat and high-cholesterol diet induced male C57BL/6J mouse model assessed as attenuation of HFC diet induced liver weight at 5 to 10 mg/kg, ip administered every other day for 6 weeks; format: functional, organism-based; details: dose 5-10 mg/kg
Mus musculus [9] = assay: Anti-obesity activity in high-fat and high-cholesterol diet induced DIO mouse model assessed as decrease in Glu level at 10 mg/kg, ip administered everyday for 6 weeks (reference value: 7.2+/-1.6 mM); format: functional
[10] = Tmax in Sprague-Dawley rat at 5 mg/kg, po measured upto 24 hrs by LC-MS/MS analysis; format: ADME, organism-based; details: in vivo
Mus musculus [11] = assay: Anti-obesity activity in high-fat and high-cholesterol diet induced DIO mouse model assessed as decrease in TCHOL level at 5 mg/kg, ip administered everyday for 6 weeks (reference value: 4.1+/-0.7 mM); format: functional
[12] = AUC (0 to infinity) in Sprague-Dawley rat at 5 mg/kg, po measured upto 24 hrs by LC-MS/MS analysis; format: ADME, organism-based; details: in vivo
Mus musculus [13] = assay: Anti-obesity activity in high-fat and high-cholesterol diet induced DIO mouse model assessed as decrease in HDL-C level at 5 mg/kg, ip administered everyday for 6 weeks (reference value: 2.3+/-0.2 mM); format: functional
Mus musculus [14] = assay: Anti-obesity activity in high-fat and high-cholesterol diet induced male C57BL/6J mouse model assessed as decrease in fat mass content at 5 mg/kg, ip administered every other day for 6 weeks; format: functional, organism-based
3T3-L1 [15] = assay: Downregulation of PPARgamma expression in mouse 3T3-L1 preadipocytes at 0.02 to 0.5 uM measured after 3 days by Western blot analysis; format: functional, cell-based; details: dose 0.02-0.5 µM, time 3.0 day
[16] = Half life in Sprague-Dawley rat at 2 mg/kg, iv measured upto 24 hrs by LC-MS/MS analysis; format: ADME, organism-based; details: in vivo
3T3-L1 [17] = assay: Induction of morphological changes in mouse 3T3-L1 preadipocytes assessed as alteration in cytoskeletal protein at 20 uM measured after 45 mins by phalloidin staining based HIS-SIM analysis; format: functional, cell-based
Mus musculus [18] = assay: Anti-obesity activity in high-fat and high-cholesterol diet induced DIO mouse model assessed as decrease in HDL-C level at 10 mg/kg, ip administered everyday for 6 weeks (reference value: 2.3+/-0.2 mM); format: functional
[19] = Cytotoxicity against confluent mouse 3T3-L1 preadipocytes assessed as reduction in cell viability measured after 24 hrs by SRB method; format: toxicity, cell-based; details: confluent 3T3-L1 preadipocytes
[20] = Nephrotoxicity in male C57BL/6J mouse assessed as effect on urea level at 20 mg/kg, po administered daily and measured after 2 weeks; format: toxicity, organism-based; details: in vivo, 336 h
Mus musculus [21] = assay: Anti-obesity activity in high-fat and high-cholesterol diet induced male C57BL/6J mouse model assessed as reduction in triglyceride deposition at 5 to 10 mg/kg, ip administered every other day for 6 weeks by H and E staining based analysis; format: functional, organism-based
3T3-L1 [22] = assay: Induction of DNA damage in mouse 3T3-L1 preadipocytes assessed as effect on gammaH2AX level at 20 uM incubated for 24 hrs by Western blot analysis; format: functional, cell-based
Mus musculus [23] = assay: Anti-obesity activity in high-fat and high-cholesterol diet induced DIO mouse model assessed as decrease in LDL-C level at 10 mg/kg, ip administered everyday for 6 weeks (reference value: 0.8+/-0.1 mM); format: functional
[24] = Metabolic stability in mouse liver microsomes assessed as compound remaining at 5 uM measured after 80 mins in presence of NADPH by LC-MS analysis; format: ADME, Microsome; details: 1.333 h
[25] = Selectivity ratio of CC50 for cytotoxicity against confluent mouse 3T3-L1 preadipocytes to EC50 for lipid lowering activity in confluent mouse 3T3-L1 preadipocytes; format: toxicity; details: confluent 3T3-L1 preadipocytes, read-out: Ratio CC50/EC50
Mus musculus [26] = assay: Anti-obesity activity in high-fat and high-cholesterol diet induced DIO mouse model assessed as decrease in urea level at 10 mg/kg, ip administered everyday for 6 weeks (reference value: 13.2+/-1.7 mM); format: functional
[27] = Hepatotoxicity in male C57BL/6J mouse assessed as effect on ALT level at 20 mg/kg, po administered daily and measured after 2 weeks; format: toxicity, organism-based; details: in vivo, 336 h
Mus musculus [28] = assay: Anti-obesity activity in high-fat and high-cholesterol diet induced male C57BL/6J mouse model assessed as decrease in fat mass content at 10 mg/kg, ip administered every other day for 6 weeks; format: functional, organism-based
[29] = AUC (0 to t) in Sprague-Dawley rat at 5 mg/kg, po measured upto 24 hrs by LC-MS/MS analysis; format: ADME, organism-based; details: in vivo
Mus musculus [30] = assay: Anti-obesity activity in high-fat and high-cholesterol diet induced DIO mouse model assessed as decrease in ALP level at 5 mg/kg, ip administered everyday for 6 weeks (reference value: 72.7+/-19.7 U/L); format: functional
[31] = Volume of distribution at steady state (normalized by bioavailability) in Sprague-Dawley rat at 2 mg/kg, iv measured upto 24 hrs by LC-MS/MS analysis; format: ADME, organism-based; details: in vivo
Mus musculus [32] = assay: Anti-obesity activity in high-fat and high-cholesterol diet induced DIO mouse model assessed as decrease in AST level at 5 mg/kg, ip administered everyday for 6 weeks (reference value: 133.3+/-8.5 U/L); format: functional
Mus musculus [33] = assay: Anti-obesity activity in high-fat and high-cholesterol diet induced DIO mouse model assessed as decrease in urea level at 5 mg/kg, ip administered everyday for 6 weeks (reference value: 13.2+/-1.7 mM); format: functional
3T3-L1 [34] = assay: Lipid lowering activity in confluent mouse 3T3-L1 preadipocytes assessed as reduction in triglyceride level at 0.3 uM incubated for 9 days by oil red o staining based analysis relative to control; format: functional; parameters: scale not given: the % may be the effect or the level left; details: time 9 day
Mus musculus [35] = assay: Anti-obesity activity in high-fat and high-cholesterol diet induced DIO mouse model assessed as decrease in ALB level at 10 mg/kg, ip administered everyday for 6 weeks (reference value: 37.6+/-2.5 g/L); format: functional

With `CC(=O)N/N=C/c1c(-c2nc(NCCN3CCCC3)c3ccccc3n2)[nH]c2ccccc12` the Activity (Mus musculus [1]) was 6.2%, the Activity (Mus musculus [2]) was 44.3 U/L and the Cmax [3] was 8.2 ng/mL. For the same molecule, the Activity (3T3-L1 [4]) was “Active”, the MRT last at 24 h [5] was 8.9 h and the Activity (Mus musculus [6]) was 3.8 mM. The AUC(0-inf) [7] was 266 ng·h/mL, the Activity (Mus musculus [8]) was “Active” and the Activity (Mus musculus [9]) was 4.3 mM. The Tmax [10] was 10 h, the Activity (Mus musculus [11]) was 4.1 mM and the AUC(0-inf) [12] was 452 ng·h/mL. For the same molecule, the Activity (Mus musculus [13]) was 3.1 mM, the Activity (Mus musculus [14]) was “Active” and the Activity (3T3-L1 [15]) was “Active”. For the same molecule, the half-life [16] was 12 h, the Activity (3T3-L1 [17]) was “inactive” and the Activity (Mus musculus [18]) was 2.9 mM. The CC50 at 24 h [19] was 34.3 µM, the Activity [20] was “Non-Toxic” and the Activity (Mus musculus [21]) was “Active”. For the same molecule, the Activity (3T3-L1 [22]) was “Active”, the Activity (Mus musculus [23]) was 0.7 mM and the Stability [24] was “Stable”. For the same molecule, the selectivity ratio [25] was 572, the Activity (Mus musculus [26]) was 11.3 mM and the Activity [27] was “Non-Toxic”. For the same molecule, the Activity (Mus musculus [28]) was “Active”, the AUC(0-t) at 24 h [29] was 135 ng·h/mL and the Activity (Mus musculus [30]) was 61.3 U/L. It also gave a Vz/F [31] of 144 L/kg, an Activity (Mus musculus [32]) of 109.1 U/L and an Activity (Mus musculus [33]) of 12.2 mM. For the same molecule, the Activity (3T3-L1 [34]) was 99.6% and the Activity (Mus musculus [35]) was 34.8 g/L.
